Data taken from US6395739B1, “N-phenyl-N′-phenylpopylpiperazine derivatives and process for the preparation” (Zeria Pharmaceutical Co., Ltd., priority 1998, dated 2002).
Counter-ions that a name gives are not always drawn.

What was measured:
α1-adrenoceptor [1] = assay: α1-adrenoceptor blocking activity, phenylephrine-induced contraction of rabbit prostate smooth muscle strips; parameters: species or system Rabbits; conditions: rabbit prostate strip; vs phenylephrine concentration-response curve; test drug 10^-7-10^-5 M for 30 minutes; 10^-5 M propranolol present
Description: (§1) <α1-Adrenoceptor Blocking Activity>
(§2) Rabbits were exsanguinated to death, and the prostatic urethra and the prostate were removed and smooth muscle strips were prepared. Each strip was suspended in a 37° C. Krebs-solution-containing organ bath which had been bubbled with 95% O2 and 5% CO2. Isometric contraction under a resting tension of 1 g was recorded by an isometric transducer (by Nihon Koden: TB-651T) on a pen-type recorder (product of Nihon Denki San'ei: RECTI HORIZ 8K).
(§3) After the strips had been equilibrated for 60 minutes, contractions were elicited by use of a certain concentration of phenylephrine (10^−5 M). Subsequently, the organ bath was washed with a physiological solution, and the above procedure was repeated at 60-minute intervals of resting time until constant constriction responses of the strips were obtained. Next, phenylephrine was added cumulatively to organ bath(10^−7-3×10^−4 M), to thereby obtain concentration-response curves (control). After the resting period of 60 minutes following washing of the strip, test samples (DMSO solutions containing the test drug; 10^−7-10^−5 M) were treated for 30 minutes, and concentration-response curves of phenylephrine were obtained.
(§4) The composition of the physiological solution was as follows: NaCl 118.4 mM, KCl 4.7 mM, MgCl2 1.2 mM, CaCl2 2.5 mM, NaHCO3 25.0 mM, glucose […], and KH2PO4 1.2 mM.
(§5) In all cases, 10^−5 M propranolol (β-adrenoceptor antagonist) was added to the physiological solution 10 minutes before test sample was treated with strip.
(§6) The potency of each test drug with regard to the α1-adrenoceptor blocking activity was evaluated on the basis of calculation of pA2 (inverse of the logarithm of the concentration by mole of the antagonist which, in the presence of the antagonist, requires twice the concentration of the agonist for providing the same effect as required in the absence of the antagonist).

α1-adrenoceptor [2] = assay: α1-adrenoceptor blocking activity, phenylephrine-induced contraction of rabbit prostatic urethra smooth muscle strips; parameters: species or system Rabbits; conditions: rabbit prostatic urethra strip; vs phenylephrine concentration-response curve; test drug 10^-7-10^-5 M for 30 minutes; 10^-5 M propranolol present
Description: as §1, §2, §3, §4, §5, §6

For `COc1ccccc1N1CCN(CC[C@H](Oc2ccc(C#N)cc2)c2ccc(C)cc2)CC1` [Example 1, (S)-4-[3-[4-(2-methoxyphenyl)piperazin-1-yl]-1-(4-methylphenyl)propoxy]benzonitrile dihydrochloride], the pA2 prostate (α1-adrenoceptor [1]) was 8.00 and the “pA2 Urethra” value (α1-adrenoceptor [2]) was 8.44.
With `COc1ccccc1N1CCN(CC[C@H](Oc2ccc(C(=O)O)cc2)c2ccc(C)cc2)CC1` [Example 2, (S)-4-[3-[4-(2-methoxyphenyl)piperazin-1-yl]-1-(4-methylphenyl)propoxy]benzoic acid] the pA2 prostate (α1-adrenoceptor [1]) was 8.67 and the “pA2 Urethra” value (α1-adrenoceptor [2]) was 8.73.
For `COc1ccccc1N1CCN(CC[C@H](Oc2ccc(C(=O)c3c[nH]c4ccccc34)cc2)c2ccc(C)cc2)CC1.Cl` [Example 3, (S)-3-[4-[3-[4-(2-methoxyphenyl)piperazin-1-yl]-1-(4-methylphenyl)propoxy]benzoyl]indole hydrochloride], the pA2 prostate (α1-adrenoceptor [1]) was 6.89 and the “pA2 Urethra” value (α1-adrenoceptor [2]) was 6.29.
